Measured values reported in patent US20100216703A1, “Inhibitors of PDE4 and Methods of Use” (THE REGENTS OF THE UNIVERSITY OF CALIFORNIA, priority 2006, published 2010).
“Also recorded” adds a separate entry of the source.

Key:
[1] = system: NIH3T3p75NTR cells; test: Competitive binding cAMP ELISA; type: cell-based; conditions: for intracellular cAMP levels in NIH3T3p75NTR cells: 16 h, PTX 100 ng/ml, IBMX 500 μM, PDE1 inh. 18.7 μM, EHNA 80 μM, trequinsin 100 nM, rolipram 10 μM, PDE5 inh. 23 μM
Method: […] fibroblasts or 500,000 SCs were lysed in 0.1 N HCl solution and cAMP was measured using a competitive binding cAMP ELISA (Assay Designs). Cells were treated with 100 ng/ml PTX for 16 h. […] Cells were treated with forskolin in the presence of the inhibitors for 1 h. […] For the qualitative and quantitative PKA assay (Promega), cells were treated with 10 μM forskolin for 30 min, lysed in 1% NP-40 buffer with 150 mM NaCl, 50 mM Tris, and 1 mM EGTA, and protein concentration was determined using the Bradford Assay (Bio-Rad Laboratories). 1 μg was loaded into the PKA assay reaction mix according to the manufacturer's protocol (Promega).

[2] = system: NIH3T3 cells; test: Quantification of tPA activity; type: cell-based; conditions: 10 μM forskolin 16 h; 200 nM KT5720; IBMX
Method: (§1) Quantification of tPA and uPA activity in SC and fibroblast in lysates and supernatants was performed according to the directions of the activity assay kits from American Diagnostica and Chemicon, respectively. To elevate cAMP cells were treated either with 2 mM db-cAMP (Sigma-Aldrich) or with 10 μM forskolin (Sigma-Aldrich) for 16 h. To block PKA activity, cells were treated with 200 nM KT5720 (Calbiochem).

[3] = system: NIH3T3p75NTR cells; test: Quantification of tPA activity; type: cell-based; conditions: 10 μM forskolin 16 h; 200 nM KT5720; IBMX; rolipram
Method: as §1

[4] = system: NIH3T3 cells; test: RT-PCR / real-time PCR of tPA and PAI-1 RNA; type: cell-based
Method: RT-PCR was performed as described previously (Akassoglou et al., 2002). Primers for tPA, uPA, and PAI-1 genes were used as described previously (Yamamoto and Loskutoff, 1996). Real-time PCR was performed using the Opticon DNA Engine 2 (MJ Research) and the Quantitect SYBR Green PCR kit (QIAGEN). Results were analyzed with Opticon 2 software using the comparative Ct method as described previously (Livak and Schmittgen, 2001). Data were expressed as ΔΔCt for the tPA gene normalized against GAPDH.

[5] = system: NIH3T3p75NTR cells; test: Fibrin degradation assay on 3D fibrin gel; type: cell-based; conditions: 2 mM db-cAMP
Method: as §1
(§2) Coating with fibrin was prepared as described previously (Lansink et al., 1998). To quantitate fibrin degradation, the supernatant was aspirated and the remaining gel was weighed using an analytical balance. Decrease of gel weight corresponded to increased fibrin gel degradation.

[6] = target: T1, tPA (Mus musculus, UniProt P11214); test: In situ zymography of crushed sciatic nerve; type: biochemical; conditions: injured sciatic nerve of p75NTR−/− mice, in the presence of plasminogen
T1 construct: from tissue; host or cells: crushed sciatic nerve of p75NTR-/- mice (C57Bl/6 background)
T1 sequence (P11214 33-559): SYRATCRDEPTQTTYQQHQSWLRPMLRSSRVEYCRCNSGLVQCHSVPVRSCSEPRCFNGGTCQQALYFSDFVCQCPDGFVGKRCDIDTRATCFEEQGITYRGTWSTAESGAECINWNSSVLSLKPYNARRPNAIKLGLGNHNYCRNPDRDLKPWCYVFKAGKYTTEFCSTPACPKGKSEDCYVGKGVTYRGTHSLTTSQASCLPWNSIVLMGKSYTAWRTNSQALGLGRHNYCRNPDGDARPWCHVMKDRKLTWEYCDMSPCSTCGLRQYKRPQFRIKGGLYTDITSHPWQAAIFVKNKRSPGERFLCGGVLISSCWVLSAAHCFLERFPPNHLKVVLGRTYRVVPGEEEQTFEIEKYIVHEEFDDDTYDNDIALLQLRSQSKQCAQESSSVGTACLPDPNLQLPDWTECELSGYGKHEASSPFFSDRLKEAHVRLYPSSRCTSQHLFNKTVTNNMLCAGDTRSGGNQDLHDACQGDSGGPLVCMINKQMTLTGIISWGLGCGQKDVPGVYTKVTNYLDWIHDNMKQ
Method: In situ zymographies were performed as described previously (Akassoglou et al., 2000). Quantification of in situ zymographies was performed by measuring the area of the lytic zone surrounding each nerve, and dividing that value by the area of the nerve. Images were collected after 8 h of incubation for the sciatic nerve and 4 h of incubation for the lung. For cell zymographies, cultures were washed four times with PBS/BSA and overlaid with 200 μl of Dulbecco's […] medium containing 1% LMP agarose, 2.5% boiled nonfat milk, and 25 μg/ml human plasminogen. The overlay was allowed to harden, and plates were incubated in a cell culture incubator at 37° C. Pictures of lytic zones were taken using an inverted microscope under dark field (Carl Zeiss Microlmaging, Inc.).

[7] = system: NIH3T3 cells; test: Fibrin degradation assay on 3D fibrin gel; type: cell-based
Method: as §2

[8] = system: wt and p75NTR−/− SCs; test: Quantification of tPA activity in primary Schwann cells; type: cell-based, mouse; conditions: 10 μM forskolin, 100 ng/ml NGF, 50 ng/ml BDNF, 16 h
Method: as §1
Murine SCs were isolated as described previously (Syroid et al., 2000). NIH3T3 or HEK293 cells were cotransfected either with p75NTR FL, ICD or deletion constructs, and PDE4A5 cDNAs using Lipofectamine 2000 (Invitrogen) as described in the Results section. CGNs were isolated from P10 animals (Yamashita and Tohyama, 2003). CGNs were lysed immediately for co-IP, without plating. siRNA directed against p75NTR (Dharmacon; SMART Pool reagent, Cat. M-080041-00; Cat. M-009340) was transfected into SCs and NIH3T3p75NTR cells using Dharmafect (Dharmacon).

[9] = target: p75 neurotrophin receptor (p75NTR), stably expressed in NIH3T3p75NTR cells

CCCCCC[C@@H]([C@@H](C)O)n1cnc2c(N)ncnc21 (racemic) [EHNA, erythro-9-(2-Hydroxy-3-nonyl)adenine] was tested, and the “intracellular cAMP levels in NIH3T3p75NTR cells” value [1] was “only IBMX (P<0.0001) and rolipram (P<0.0001) increase”.

With COc1ccc2ncnc(NCc3ccc4c(c3)OCO4)c2c1 [4-{[3′,4′-(Methylenedioxy)benzyl]amino}-6-methoxyquinazoline] the “intracellular cAMP levels in NIH3T3p75NTR cells” value [1] was “only IBMX (P<0.0001) and rolipram (P<0.0001) increase”.

With COCc1nc2c([nH]1)c(=O)n(C)c(=O)n2CC(C)C [8-Methoxymethyl-IBMX, 8-methoxymethyl-3-isobutyl-1-methylxanthine] the “intracellular cAMP levels in NIH3T3p75NTR cells” value [1] was “only IBMX (P<0.0001) and rolipram (P<0.0001) increase”.

CCCCCCOC(=O)[C@]1(O)C[C@@H]2O[C@@]1(C)n1c3ccccc3c3c4c(c5c6ccccc6n2c5c31)C(=O)NC4 [KT5720] was tested, and the “tPA activity in NIH3T3 cells” value [2] was “decrease of tPA activity; also recorded: decreases tPA activity”, the “tPA activity in NIH3T3p75NTR cells” value [3] was “decrease of tPA activity” and the “tPA mRNA in NIH3T3 cells” value [4] was “decreases tPA transcript; also recorded: decreases tPA RNA”.

In the case of CCCC(=O)Nc1ncnc2c1ncn2[C@@H]1O[C@@H]2COP(=O)(O)O[C@H]2[C@H]1OC(=O)CCC [db-cAMP, dibutyryl-cAMP], the “fibrinolysis in NIH3T3p75NTR cells” value [5] is reported as “induces fibrinolysis; also recorded: overcomes the inhibitory effect of p75NTR”.

In the case of Cl.Cl.N=C(N)c1ccc(C=C2CCCCC(=Cc3ccc(C(=N)N)cc3)C2=O)cc1 [tPASTOP], the “proteolytic activity (in situ zymography)” value [6] is reported as “blocks proteolytic activity”.

With COc1cc2c(cc1OC)-c1c/c(=N\c3c(C)cc(C)cc3C)n(C)c(=O)n1CC2 [trequinsin] the “intracellular cAMP levels in NIH3T3p75NTR cells” value [1] was “only IBMX (P<0.0001) and rolipram (P<0.0001) increase”.

With Aprotinin the “fibrin degradation by NIH3T3 cells” value [7] was “completely inhibits fibrin degradation”.

With NGF: nerve growth factor the “tPA activity in SCs” value [8] was “do not affect activity of tPA; also recorded: has no effect on tPA” and the “intracellular cAMP levels in NIH3T3p75NTR cells, neurotrophins or their inhibition” value ([1]; 100 ng/ml NGF, 50 ng/ml BDNF, 750 ng/ml FcTrkB, 1.35 ug/ml Fcp75NTR, 1 h) was “does not affect the p75NTR-mediated suppression of cAMP”.

With pertussis toxin [PTX] the “intracellular cAMP levels in NIH3T3p75NTR cells” value [1] was “does not rescue the p75NTR-mediated down-regulation of cAMP; also recorded: only IBMX (P<0.0001) and rolipram (P<0.0001) increase”.

B1: endogenous PDE4A5 (PDE4A, 109 kD) of NIH3T3p75NTR cells (protein)
chain: MEPPAAPSERSLSLSLPGPREGQATLKPPPQHLWRQPRTPIRIQQRGYSDSAERSEPERSPHRPIERADAVDTGDRPGLRTTRMSWPSSFHGTGTGGGSSRRLEAENGPTPSPGRSPLDSQASPGLMLHAGAATSQRRESFLYRSDSDYDMSPKTMSRNSSVASEAHGEDLIVTPFAQVLASLRNVRSNFSLLTNVPIPSNKRSPLGGPPSVCKATLSEETCQQLARETLEELDWCLEQLETMQTYRSVSEMASHKFKRMLNRELTHLSEMSRSGNQVSEYISNTFLDKQHEVEIPSPTPRQRPFQQPPPAAVQQAQPMSQITGLKKLVHTGSLNINVPRFGVKTDQEDLLAQELENLSKWGLNIFCVSEYAGGRSLSCIMYTIFQERDLLKKFHIPVDTMMTYMLTLEDHYHADVAYHNSLHAADVLQSTHVLLATPALDAVFTDLEILAALFAAAIHDVDHPGVSNQFLINTNSELALMYNDESVLENHHLAVGFKLLQEENCDIFQNLSKRQRQSLRKMVIDMVLATDMSKHMTLLADLKTMVETKKVTSSGVLLLDNYSDRIQVLRNMVHCADLSNPTKPLELYRQWTDRIMAEFFQQGDRERERGMEISPMCDKHTASVEKSQVGFIDYIVHPLWETWADLVHPDAQDILDTLEDNRDWYHSAIRQSPSPTLEEEPGVLSDPALPDKFQFELTLEEEDEEDSLEVPGLPCTEETLLAPHDTRAQAMEQSKVKGQSPAVVEVAESLKQETASAHGAPEESAEAVGHSFSLETSILPDLRTLSPSEEAQGLLGLPSMAAEVEAPRDHLAAMRACSACSGTSGDNSAVISAPGRWGSGGDPA
In the case of B1, the “FRET emission ratio change of pm-AKAR2.2 in response to forskolin (membrane-associated PKA activity)” value [9] is reported as “NIH3T3p75NTR cells show an attenuated response, revealing reduced PKA activity at the plasma membrane”.

B2: BDNF: Brainderived neurotrophic factor (protein, UniProt P23560 19-247, looked up)
Neurotrophic factor BDNF …: APMKEANIRGQGGLAYPGVRTHGTLESVNGPKAGSRGLTSLADTFEHVIEELLDEDQKVRPNEENNKDADLYTSRVMLSSQVPLEPPLLFLLEEYKNYLDAANMSMRVRRHSDPARRGELSVCDSISEWVTAADKKTAVDMSGGTVTVLEKVPVSKGQLKQYFYETKCNPMGYTKEGCRGIDKRHWNSQCRTTQSYVRALTMDSKKRIGWRFIRIDTSCVCTLTIKRGR
In the case of B2, the “tPA activity in SCs” value [8] is reported as “do not affect activity of tPA; also recorded: has no effect on tPA”.
